# Measured values: US20080221017A1, “Pharmaceutical or cosmetic composition and use of a PKC inhibitor with an MMP inhibitor for inhibiting langerhans cell migration” (Laboratoires Expanscience, priority 2000, published 2008)
# System: Langerhans cells (LCs)
# Experiment: Migration of LCs through Matrigel in a two-compartment culture chamber (DNSB-sensitized)
# Type: cell-based, human
# Conditions: for LC migration index: 18 h at 37° C., control cells fixed at 1
# Experimental: Suspensions of epidermal cells were obtained by enzyme treatment (0.05% trypsin, for 18 h at +4° C.) of fragments of normal human skin derived from plastic surgery.
# D-sphingosine was diluted in ethanol so as to obtain a stock solution at 5×10^−3 M. The D-sphingosine was used at a concentration of 2.5 μM, the dilution carried out in RPMI containing 1% of bovine serum albumin (RPMI-BSA).
# A peptide extract of lupin was used as MMP inhibitor. It is the peptide extract LU105 from Laboratoires Pharmascience.
# The cells were pre-incubated at 37° C. for 60 min in the presence of LU105, before adding to the medium the hapten DNSB as sensitizing agent.
# As sensitizing agent, DNSB (Sigma Aldrich) was used, the soluble form of DNCB (dinitrochlorobenzene), and was solubilized in RPMI-BSA and used at a concentration of 50 μM.
# A two-compartment culture chamber system (Falcon, Becton Dickinson, France) was used. The upper compartment is separated from the lower compartment by a membrane with a porosity of 8 μm, onto which are deposited 50 μg/cm^2 of Matrigel. The membrane is then covered with proteins, forming a film equivalent to a basal membrane (laminin, collagen IV, nidogen, entactin, heparan sulfate proteoglycans). The cells taken up in the RPMI-BSA medium alone or in the presence of the various products are placed in the upper compartment. Normal human fibroblast culture supernatant is added to the lower compartment. After incubation for 18 h at 37° C., the number of living cells which have crossed the Matrigel and are in the lower compartment is counted under a microscope (the LCs are easily identifiable by their dendritic shape). Each assay is carried out in triplicate.
SMILES,LC migration index (cells sensitized with the hapten DNSB (50 μM) alone),increase of LC migration compared to the normal unstimulated cells (control cells) (treatment with the hapten DNSB alone) [%],effect on the LC migration induced by DNSB (in words) (D-sphingosine 2.5 μM),LC migration index (DNSB+D-sphingosine (2.5 μM))
"O=[N+]([O-])c1ccc(S(=O)(=O)O)c([N+](=O)[O-])c1 [DNSB, reference compound]",1.61,61,–,–
"CCCCCCCCCCCCC/C=C/[C@@H](O)[C@@H](N)CO (relative stereo) [D-sphingosine, D-erythro-1,3-dihydroxy-2-amino-4-trans-octadecene]",–,–,significantly inhibits,1.15
